Assay results: patent publication US20250171436A1, “Tricyclic Fused Heterocyclic PDE3/4 Dual Inhibitor and Use Thereof” (XIZANG HAISCO PHARMACEUTICAL CO., LTD., priority 2022, published 2025)

Key:
[1] = target: T1, PDE3A recombinant enzyme (Homo sapiens, UniProt Q14432); experiment: In vitro assay of inhibitory activity against PDE 3A enzyme (FP, FAM-cAMP); type: biochemical; conditions: in vitro screening assay
T1 construct: purchased BPS 79736
Protocol: (§1) • 1. In vitro assay of the inhibitory activity of compounds against PDE 3A and PDE 4B2 enzymes
(§2) • Envision 2104 Multilabel Reader (PerkinElmer) • Black 96-well Plate (Cat #6005540, PerkinElmer) • PDE3A Assay Kit (BPS, Cat. 79736), PDE4B2 Assay Kit (BPS, Cat. 60343) • PDE3A recombinant enzyme • PDE4B2 recombinant enzyme • FAM-Cyclic-3′, 5′-AMP • PDE assay buffer • Binding Agent • Binding Agent Diluent (cAMP)
(§3) • 1) Prepare FAM cAMP working solution: 20 μL of FAM-Cyclic-3′,5′-AMP stock was added to 1980 μL of PDE assay buffer. The mixture was added to all wells at 25 μL/well. • 2) Prepare compound solution: the test compounds were dissolved in DMSO to give a 10 mM stock solution. The compound stock solution was diluted with DMSO to a 100× Top Dose diluent. 5 μL of 100× Top Dose diluent was added to 45 μL of PDE assay buffer to prepare a compound Top Dose working solution. Then, the compound working solution was subjected to double dilution with PDE assay buffer containing 10% DMSO to prepare compound working solutions of various concentrations. The compound working solutions were added to compound wells at 5 μL/well. 5 μL of PDE assay buffer containing 10% DMSO was added to each control well. • 3) Prepare PDE enzyme solution: PDE3A and PDE4B2 enzyme stock solutions were diluted to 150 pg/μL and 50 pg/μL, respectively, with PDE assay buffer, and added to all compound wells and Vehicle control wells at 20 μL/well. 20 μL of PDE assay buffer was added to Blank control wells. • 4) React at room temperature for 1 h. • 5) Prepare Binding Agent: 80 μL of binding agent was added to 7920 μL of binding agent diluent, and the mixture was mixed well and added to all wells at 100 μL/well. • 6) React at room temperature for 1 h. • 7) Read FP on Envision. • 8) Calculation formula for original data:
(§4) % inhibition rate=(FPV−FPS)/(FPV−FPB)×100% • FPS=sample FP • FPV=Vehicle control FP • FPB=Blank control FP.
(§5) Nonlinear regression analysis of log[dose]-inhibition rate was performed by graphpad and IC50 was calculated.

[2] = target: T2, PDE4B2 recombinant enzyme (Homo sapiens, UniProt Q07343); experiment: In vitro assay of inhibitory activity against PDE 4B2 enzyme (FP, FAM-cAMP); type: biochemical; conditions: in vitro screening assay
T2 construct: purchased BPS 60343
T2 sequence (Q07343 1-564 isoform Q07343-2): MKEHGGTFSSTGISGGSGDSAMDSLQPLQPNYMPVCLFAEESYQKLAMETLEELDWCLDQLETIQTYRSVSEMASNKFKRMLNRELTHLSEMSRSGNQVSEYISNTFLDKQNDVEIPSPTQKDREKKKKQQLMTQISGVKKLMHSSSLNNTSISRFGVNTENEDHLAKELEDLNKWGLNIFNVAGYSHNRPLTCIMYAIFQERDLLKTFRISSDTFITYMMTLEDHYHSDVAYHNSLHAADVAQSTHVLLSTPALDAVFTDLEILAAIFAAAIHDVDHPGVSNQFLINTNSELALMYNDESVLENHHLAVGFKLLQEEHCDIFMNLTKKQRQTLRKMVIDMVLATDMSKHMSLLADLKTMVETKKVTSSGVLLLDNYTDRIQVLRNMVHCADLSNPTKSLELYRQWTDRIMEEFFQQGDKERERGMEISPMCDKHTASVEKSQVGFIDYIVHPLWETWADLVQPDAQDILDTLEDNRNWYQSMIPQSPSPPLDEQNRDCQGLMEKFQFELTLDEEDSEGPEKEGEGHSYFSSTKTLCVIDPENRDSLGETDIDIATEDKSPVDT
Protocol: as §1, §2, §3, §4, §5

[3] = reported in WO 2000058308 A1; cited from earlier work
[4] = reported in WO 2000058308 A1; cited from earlier work; remark: listed apart in the source
[5] = test system: PDE4; conditions: biological activity data, background; cited from earlier work

T1 sequence (Q14432 whole entry): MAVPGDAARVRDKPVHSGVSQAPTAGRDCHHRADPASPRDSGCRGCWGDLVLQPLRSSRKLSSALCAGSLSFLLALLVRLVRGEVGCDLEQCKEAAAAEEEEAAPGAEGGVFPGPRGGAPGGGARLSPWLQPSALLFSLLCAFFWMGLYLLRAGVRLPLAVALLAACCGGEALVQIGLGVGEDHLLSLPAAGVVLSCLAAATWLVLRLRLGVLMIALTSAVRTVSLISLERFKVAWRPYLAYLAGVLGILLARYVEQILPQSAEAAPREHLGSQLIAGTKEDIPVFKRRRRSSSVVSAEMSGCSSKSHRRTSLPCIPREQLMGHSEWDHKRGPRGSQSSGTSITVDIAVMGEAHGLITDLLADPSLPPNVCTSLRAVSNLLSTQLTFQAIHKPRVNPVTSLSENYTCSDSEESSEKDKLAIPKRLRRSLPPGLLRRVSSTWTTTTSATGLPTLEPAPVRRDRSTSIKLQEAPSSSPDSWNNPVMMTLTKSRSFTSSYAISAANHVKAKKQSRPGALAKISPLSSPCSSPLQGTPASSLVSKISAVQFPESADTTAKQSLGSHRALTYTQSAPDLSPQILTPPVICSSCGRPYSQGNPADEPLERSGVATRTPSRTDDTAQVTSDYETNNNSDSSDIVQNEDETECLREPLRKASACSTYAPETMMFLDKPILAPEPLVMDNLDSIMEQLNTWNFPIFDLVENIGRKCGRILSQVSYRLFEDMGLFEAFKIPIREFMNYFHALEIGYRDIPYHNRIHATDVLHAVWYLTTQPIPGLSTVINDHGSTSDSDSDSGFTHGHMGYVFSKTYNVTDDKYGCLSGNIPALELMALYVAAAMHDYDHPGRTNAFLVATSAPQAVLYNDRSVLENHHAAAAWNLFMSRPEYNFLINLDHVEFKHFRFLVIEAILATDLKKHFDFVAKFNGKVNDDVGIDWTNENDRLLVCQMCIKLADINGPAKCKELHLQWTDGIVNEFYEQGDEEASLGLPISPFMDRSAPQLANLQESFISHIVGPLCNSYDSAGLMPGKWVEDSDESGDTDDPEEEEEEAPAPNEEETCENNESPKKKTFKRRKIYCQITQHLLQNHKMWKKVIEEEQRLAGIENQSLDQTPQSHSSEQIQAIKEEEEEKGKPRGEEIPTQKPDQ

SMILES	IC50 [1] [pM]	IC50 [2] [pM]	solubility [3]	plasma clearance [4]	PDE4 inhibitory activity [5]
COc1cc2c(cc1OC)-c1c/c(=N\c3c(C)cc(C4CC4)cc3C)n(CCNC(=O)c3c(O)nnn3C)c(=O)n1CC2 [Compound 6, (E)-N-(2-(2-((4-cyclopropyl-2,6-dimethylphenyl)imino)-9,10-dimethoxy-4-oxo-6,7-dihydro-2H-pyrimido[6,1-a]isoquinolin-3(4H)-yl)ethyl)-4-hydroxy-1-methyl-1H-1,2,3-triazole-5-carboxamide]	530	8430	–	–	–
COc1cc2c(cc1OC)-c1c/c(=N\c3c(C)cc(C)cc3C)n(CCNC(N)=O)c(=O)n1CC2 [RPL554]	–	–	poor	high	unsatisfactory
CCOc1cc2c(cc1OC)-c1c/c(=N\c3c(C)cc(OC)cc3C)n(CCNC(=O)c3c(O)nnn3C)c(=O)n1CC2 [Compound 9, (E)-N-(2-(9-ethoxy-10-methoxy-2-((4-methoxy-2,6-dimethylphenyl)imino)-4-oxo-6,7-dihydro-2H-pyrimido[6,1-a]isoquinolin-3(4H)-yl)ethyl)-4-hydroxy-1-methyl-1H-1,2,3-triazole-5-carboxamide]	500	1520	–	–	–
CCOc1cc2c(cc1OC)-c1c/c(=N\c3c(C)cc(C4CC4)cc3C)n(CCNC(=O)c3c(O)nnn3C)c(=O)n1CC2 [Compound 8, (E)-N-(2-(2-((4-cyclopropyl-2,6-dimethylphenyl)imino)-9-ethoxy-10-methoxy-4-oxo-6,7-dihydro-2H-pyrimido[6,1-a]isoquinolin-3(4H)-yl)ethyl)-4-hydroxy-1-methyl-1H-1,2,3-triazole-5-carboxamide]	590	1400	–	–	–
